Data as given in PMC11851430, “Workflow for E3 Ligase Ligand Validation for PROTAC Development” (ACS Chemical Biology, 2025).

Experiments:
[1] = test system: Jurkat cells; test: CellTiterGlo cell viability assay; type: cell-based, human; details: 24 h; for IC50: Homo sapiens, read-out: IC50±sd/μM (cell viability)
Outline: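 Jurkat cells treated with compound titrations; viability read by CellTiter-Glo 2.0 luminescence after 10 min at room temperature, fitted to a four-parameter curve. Proteomics samples lysed in 2% SDS, 50 mM Tris pH 8.5, TCEP and CAA, sonicated, then analysed by label-free quantitation.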

[2] = target: T1, AURKA (Homo sapiens, UniProt O14965); test: NanoBRET target engagement assay, intact and permeabilized cells; details: mean of duplicates, ^a values estimated by extrapolation
T1 sequence (O14965 1-403): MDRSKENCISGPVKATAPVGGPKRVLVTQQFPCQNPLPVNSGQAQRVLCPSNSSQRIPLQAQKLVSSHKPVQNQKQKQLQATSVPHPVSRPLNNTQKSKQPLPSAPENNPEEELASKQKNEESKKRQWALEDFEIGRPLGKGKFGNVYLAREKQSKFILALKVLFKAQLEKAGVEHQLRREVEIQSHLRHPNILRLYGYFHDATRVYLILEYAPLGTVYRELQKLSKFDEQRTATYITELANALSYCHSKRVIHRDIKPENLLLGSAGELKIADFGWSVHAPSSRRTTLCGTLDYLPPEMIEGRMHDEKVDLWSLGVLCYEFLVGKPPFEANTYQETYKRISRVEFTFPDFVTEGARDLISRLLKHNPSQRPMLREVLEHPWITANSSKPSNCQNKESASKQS
Procedure: Compounds were pipetted at various concentrations using an Echo acoustic dispenser (Labcyte), immediately followed by Tracer K10 (Promega, Tracer DB ID: T000008) for AAK1 and Aurora A and VHL Tracer (Promega, Tracer DB ID: T000019) for VHL, at an optimum KD concentration chosen from TracerDB ( tracerdb.org), respectively.
To measure the BRET signal, the NanoBRET® NanoGlo Substrate (Promega:
N1573) was added as per the manufacturer’s protocol, and filtered luminescence was measured on a PHERAstar plate reader (BMG Labtech) equipped with a luminescence filter pair (450 nm BP filter (donor) and 610 nm LP filter (acceptor)). For NanoBRET® measurement in permeabilized cells, 25 nL of digitonin (0.05 μg/μL) was pipetted into each well using an
After incubation, the BRET signals were measured by a PHERAstar plate reader (BMG Labtech) following the same procedure as intact NanoBRET® measurement. Competitive displacement data were then normalized to controls and were plotted using GraphPad Prism 9 software employing a normalized 3-parameter curve fit with the following equation:

[3] = test system: kinase protein levels in Jurkat cells; test: TMT-labeled quantitative proteomics; type: cell-based, human; details: for log2FC (compound/DMSO): Jurkat; for kinase degradation / AURKA degradation in proteomic experiments: Jurkat cells, 1 μM, 6 h; for AURKA degradation in proteomic experiments: cutoff log2(fold change) ≥ 0.60
Procedure: cultured in RPMI (Thermo: 11875093) supplemented as mentioned above. Cells were seeded in 6 well plates (Greiner: 657160) at a cell density of 1·10 6 cells/well and left at 37 °C and 5% […]
50 µl of SDS Lysis Buffer (2% SDS, 50 mM TRIS pH 8.5, 10 mM TCEP, 40 mM CAA) was added to each sample. Cells were transferred into low binding reaction tubes (Eppendorf:
0030108116) and samples were boiled for 15 minutes at 95 °C and sonicated for 2 minutes.
Methanol/Chloroform Precipitation. 200 µl of methanol and 50 µl of chloroform were added to each sample reaction tube and mixed via vortex. 150 µl of milliQ-H2O were added and samples were vortexed further. Samples were centrifuged for 5 minutes at 15000 g and the aqueous layer above the interphase was removed. 150 µl of methanol was added, samples were vortexed and centrifuged for 10 minutes at 15000 g to precipitate the pellet. The aforementioned wash procedure was repeated twice before transferring the pellet to a new low bind reaction tube in which it was allowed to dry for 5 minutes.
Dissolving the Protein Pellet and Protein Quantification. 50 µl of digestion buffer (8 M Urea, 50 mM TRIS pH 8) was added to each sample before vortexing and shaking at 750 rpm at room temperature for 10 minutes to solubilize the pellet. Protein quantification via PierceTM BCA Protein Assay Kit (Thermo: 23225) was carried out according to manufacturer’s protocol.
Protein Digestion. Samples were diluted 1:2 with 50 mM TRIS pH 8.5 to reach a final concentration of 4 M Urea. Lys-C (Promega: VA1170) was added at a 1:100 enzyme/substrate ratio. Samples were agitated at 550 rpm and 37 °C for 3 h. Samples were further diluted with 50 mM TRIS pH 8.5 to a final concentration of 1 M Urea and Trypsin (Promega: V5280) was added at a 1:100 enzyme/substrate ratio. Samples were agitated overnight at 550 rpm and 37 °C. The digestion was stopped the following day via addition of TFA to a final concentration […]
Solid Phase Extraction via C18 Cartridges. Sep-Pak C18 Cartridges (Waters: WAT054955) were used for solid phase extraction of digested peptides. For preconditioning of C18 cartridges, 1 mL of methanol was added to each column followed by 1 mL of solution B (0.1% formic acid, 80% acetonitrile) and 1 mL of solution A (0.1% formic acid, ddH2O) twice. Samples […]
were loaded to their respective columns and once samples had passed, columns were washed twice with solution A to remove unwanted components from the loading step. Elution of samples was carried out via introduction of 40% and 60% acetonitrile steps. Samples were dried and snap frozen in liquid nitrogen.
TMT-Labeling. Desalted peptides were dried and resuspended in TMT-labeling buffer (200 mM EPPS pH 8.2, 20% acetonitrile). 10 μg of peptides per condition were subjected to TMT labeling with 1:2.5 peptide TMT ratio (w/w) for 1 h at room temperature. The labeling reaction was quenched by addition of hydroxylamine to a final concentration of 0.5% and incubation at room temperature for 15 minutes. Successful TMT labeling was verified by mixing equimolar ratios of peptides and subjecting the mix to single shot LC-MS/MS analysis. For high pH reversed phase fractionation on a Dionex analytical HPLC, 50 µg of pooled and purified TMT labelled samples were resuspended in 10 mM ammonium-bicarbonate (ABC), 5% acetonitrile, […]
particle size; Phenomenex) using a multistep gradient from 100% solvent A (5% acetonitrile, 10 mM ABC in water) to 60% solvent B (90% acetonitrile, 10 mM ABC in water) over 70 minutes. Eluting peptides were collected every 45 seconds into a total of 96 fractions, which were cross-concatenated into 24 fractions and dried in a vacuum concentrator and resuspended in 3% acetonitrile with 0.1% TFA for LC-MS analysis.
Mass spectrometry data acquisition. Tryptic peptides were analyzed on an Orbitrap Lumos coupled to an easy nLC 1200 (ThermoFisher Scientific) using a 35 cm long, 75 µm ID fused-

[4] = mean of triplicates, ^b/^c values estimated
[5] = AURKA intact (IC50±sd)/μM, intact cells
[6] = AURKA permeabilized (IC50±sd)/μM, permeabilized cells
[7] = protein TRBV12-3;TRBV12-4, 1 µM, set1.2
[8] = protein UQCRHL;UQCRH, 1µM, set6
[9] = protein hCG_2014768;TMA7, 1µM, set6

`CCOC(=O)c1cc(Nc2cc(C3CC3)[nH]n2)nc(Nc2ccc(CC#N)cc2)n1` [compound 5] was tested. Which “IC50±sd/μM (cell viability)” value [1, 4] did it give?
Its value is “single-digit micromolar”.

What about the IC50 [1, 4] of the same molecule?
Its IC50 is 3.1 ± 1 µM.

And the IC50 [2, 5]?
Its IC50 is 0.577 ± 0.391 µM.

And the IC50 [2, 6]?
Its IC50 is 0.507 ± 0.079 µM.

With `CC(C)(C)OC(=O)NCCCOCCOCCOCCCNC(=O)c1cc(Nc2cc(C3CC3)[nH]n2)nc(Nc2ccc(CC#N)cc2)n1` [5-L] as the molecule, how does the IC50 [1, 4] read?
The IC50 was 5.7 ± 1.5 µM.

And the IC50 [2, 5]?
Its IC50 is ~19.7 µM.

And the IC50 [2, 6]?
The IC50 was ~7.05 µM.

For `Cc1ncsc1-c1ccc(CNC(=O)[C@@H]2C[C@@H](O)CN2C(=O)[C@@H](NC(=O)CCOCCOCCNC(=O)c2cc(Nc3cc(C4CC4)[nH]n3)nc(Nc3ccc(CC#N)cc3)n2)C(C)(C)C)cc1` [5-a], which IC50 [2, 6] is on record?
Its IC50 is ~16.9 µM.

And the “AURKA intact (IC50±sd)/μM” value ([2]; intact cells)?
The value was “outside the assay window”.

And the “log2FC (compound/DMSO)” value ([3]; protein NUDT4, 1 µM, set1.2)?
The value was -0.04256.

And the “log2FC (compound/DMSO)” value ([3]; protein PIGBOS1, 1 µM, set1.2)?
Its value is -0.1976.

What about the “log2FC (compound/DMSO)” value ([3]; protein TRAV8-2, 1 µM, set1.2) of the same molecule?
Its value is 0.04739.

What about the “log2FC (compound/DMSO)” value [3, 7] of the same molecule?
The value was 0.03953.

How did the IC50 [1, 4] turn out when `Cc1ncsc1-c1ccc(CNC(=O)[C@@H]2C[C@@H](O)CN2C(=O)[C@@H](NC(=O)CCOCCOCCOCCOCCN2CCN(c3ccc(Nc4ncc(Cl)c(Nc5ccccc5C(N)=O)n4)cc3)CC2)C(C)(C)C)cc1` [6-b] was run?
The IC50 was 3.1 ± 0.8 µM.

And the IC50 [2, 5]?
The IC50 was 0.416 ± 0.031 µM.

What about the IC50 [2, 6] of the same molecule?
Its IC50 is 0.254 ± 0.08 µM.

What about the kinase degradation [3] of the same molecule?
The kinase degradation was “more kinases were degraded”.

And the “AURKA degradation in proteomic experiments” value [3]?
Its value is “degradation levels close to the set cutoff”.

What about the “log2FC (compound/DMSO)” value ([3]; protein NUDT4, 1 µM, set1.2) of the same molecule?
The value was 0.1389.

And the “log2FC (compound/DMSO)” value ([3]; protein PIGBOS1, 1 µM, set1.2)?
The value was -0.2513.

What about the “log2FC (compound/DMSO)” value ([3]; protein TRAV8-2, 1 µM, set1.2) of the same molecule?
The value was -0.01025.

What about the “log2FC (compound/DMSO)” value [3, 7] of the same molecule?
Its value is 0.04941.

With `Cc1ncsc1-c1ccc(CNC(=O)[C@@H]2C[C@H](O)CN2C(=O)[C@@H](NC(=O)CCOCCOCCOCCN2CCN(c3cc(Nc4cc(C5CC5)[nH]n4)nc(Nc4ccc(CC#N)cc4)n3)CC2)C(C)(C)C)cc1` [4-a^neg] as the molecule, how does the kinase degradation [3] read?
The kinase degradation was “inactive”.

What about the “log2FC (compound/DMSO)” value ([3]; protein NUDT4, 1µM, set6) of the same molecule?
The value was 0.1377.

What about the “log2FC (compound/DMSO)” value ([3]; protein TRAV8-2, 1µM, set6) of the same molecule?
Its value is -0.04256.

And the “log2FC (compound/DMSO)” value [3, 8]?
Its value is 0.1443.

What about the “log2FC (compound/DMSO)” value [3, 9] of the same molecule?
The value was -0.0883.

Which kinase degradation [3] does the source give for `Cc1ncsc1-c1ccc(CNC(=O)[C@@H]2C[C@H](O)CN2C(=O)[C@@H](NC(=O)CCOCCOCCOCCOCCN2CCN(c3ccc(Nc4ncc(Cl)c(Nc5ccccc5C(N)=O)n4)cc3)CC2)C(C)(C)C)cc1` [6-b^neg] here?
Its kinase degradation is “inactive”.

What about the “log2FC (compound/DMSO)” value ([3]; protein NUDT4, 1µM, set6) of the same molecule?
Its value is -0.02087.

And the “log2FC (compound/DMSO)” value ([3]; protein TRAV8-2, 1µM, set6)?
The value was 0.09325.

And the “log2FC (compound/DMSO)” value [3, 8]?
Its value is 0.1465.

And the “log2FC (compound/DMSO)” value [3, 9]?
Its value is -0.2041.

What does the source list for `Cc1ncsc1-c1ccc(CNC(=O)[C@@H]2C[C@@H](O)CN2C(=O)[C@@H](NC(=O)CCCCCCN2CCN(c3ccc(Nc4ncc(Cl)c(Nc5ccccc5C(N)=O)n4)cc3)CC2)C(C)(C)C)cc1` [6-d]?
effect on cell viability (cytotoxicity) [1]: particularly pronounced effects on cell viability; IC50 [1, 4]: ~0.1 µM; IC50 [2, 5]: 0.372 ± 0.014 µM; IC50 [2, 6]: 0.249 ± 0.011 µM; log2FC (compound/DMSO) ([3]; protein NUDT4, 1µM, set6): 0.05822; log2FC (compound/DMSO) ([3]; protein TRAV8-2, 1µM, set6): -0.03607; log2FC (compound/DMSO) [3, 8]: -0.2976; log2FC (compound/DMSO) [3, 9]: -0.5377

Which results are given for `Cc1ncsc1-c1ccc(CNC(=O)[C@@H]2C[C@@H](O)CN2C(=O)[C@@H](NC(=O)CCOCCOCCOCCN2CCN(c3cc(Nc4cc(C5CC5)[nH]n4)nc(Nc4ccc(CC#N)cc4)n3)CC2)C(C)(C)C)cc1` [4-a]?
IC50 [2, 5]: 3.68 ± 0.085 µM; IC50 [2, 6]: 1.34 ± 0.271 µM; kinase degradation [3]: more kinases were degraded; AURKA degradation in proteomic experiments [3]: degradation levels close to the set cutoff; log2FC (compound/DMSO) ([3]; protein NUDT4, 1 µM, set1.2): -0.1286; log2FC (compound/DMSO) ([3]; protein PIGBOS1, 1 µM, set1.2): -0.1403; log2FC (compound/DMSO) ([3]; protein TRAV8-2, 1 µM, set1.2): 0.1127; log2FC (compound/DMSO) [3, 7]: 0.03022

Which results are given for `CC(C)(C)OC(=O)NCCOCCOCCOCCOCCC(=O)N1CCN(c2cc(Nc3cc(C4CC4)[nH]n3)nc(Nc3ccc(CC#N)cc3)n2)CC1` [4-L]?
IC50 [2, 5]: 1.92 ± 0.07 µM; IC50 [2, 6]: 0.63 ± 0.021 µM

How did the IC50 [1, 4] turn out when `CC(=O)N[C@H](C(=O)N1C[C@H](O)C[C@H]1C(=O)NCc1ccc(-c2scnc2C)cc1OCCOCCOCCOCCNC(=O)c1cc(Nc2cc(C3CC3)[nH]n2)nc(Nc2ccc(CC#N)cc2)n1)C(C)(C)C` [5-b] was run?
The IC50 was ~18.7 µM.

What about the IC50 [2, 5] of the same molecule?
Its IC50 is ~18.5 µM.

And the IC50 [2, 6]?
The IC50 was ~7.78 µM.

For `CC(=O)N[C@H](C(=O)N1C[C@H](O)C[C@H]1C(=O)NCc1ccc(-c2scnc2C)cc1OCCOCCOCCOCCOCCC(=O)N1CCN(c2ccc(Nc3ncc(Cl)c(Nc4ccccc4C(N)=O)n3)cc2)CC1)C(C)(C)C` [6-e], which “effect on cell viability (cytotoxicity)” value [1] is on record?
The value was “no cytotoxicity was observed”.

What about the IC50 [2, 5] of the same molecule?
Its IC50 is ~2.2 µM.

And the IC50 [2, 6]?
Its IC50 is 0.861 ± 0.251 µM.
